From patent US11629143B2, “HipK4 inhibitors and uses thereof” (Vibliome Therapeutics, LLC, priority 2020, dated 2023)

Key:
Experiment in all cases: Kinase panel (mobility shift)
Assay type in all cases: biochemical
[1] = target: T1, HIPK4 (Homo sapiens, UniProt Q8NE63)
T1 sequence (Q8NE63 1-616): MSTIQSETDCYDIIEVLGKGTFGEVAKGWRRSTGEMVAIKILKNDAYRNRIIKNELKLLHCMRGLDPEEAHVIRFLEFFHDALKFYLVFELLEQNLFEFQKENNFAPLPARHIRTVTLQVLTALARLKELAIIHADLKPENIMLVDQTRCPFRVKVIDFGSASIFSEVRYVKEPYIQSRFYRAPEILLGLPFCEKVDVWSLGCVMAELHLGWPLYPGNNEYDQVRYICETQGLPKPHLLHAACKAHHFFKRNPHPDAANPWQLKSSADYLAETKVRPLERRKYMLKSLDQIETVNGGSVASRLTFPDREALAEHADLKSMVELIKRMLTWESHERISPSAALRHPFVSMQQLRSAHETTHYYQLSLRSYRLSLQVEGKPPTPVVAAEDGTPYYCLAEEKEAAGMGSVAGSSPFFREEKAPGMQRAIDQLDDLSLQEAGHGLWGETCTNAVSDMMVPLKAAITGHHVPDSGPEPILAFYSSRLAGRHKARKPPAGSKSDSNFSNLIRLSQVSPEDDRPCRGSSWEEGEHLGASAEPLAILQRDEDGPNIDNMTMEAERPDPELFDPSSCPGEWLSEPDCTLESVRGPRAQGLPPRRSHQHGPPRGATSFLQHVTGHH
In short: (§1)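 Compound at 5 um + kinase + fluor-labeled substrate, standardized mix; rxn stopped; electrophoretic separation of product/substrate on chip; activity = product vs substrate peak fluorescence. Bins A ≥95%, B 90-94%, C 80-89%.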

[2] = target: T2, TYRO3 (Homo sapiens, UniProt Q06418)
T2 sequence (Q06418 41-890): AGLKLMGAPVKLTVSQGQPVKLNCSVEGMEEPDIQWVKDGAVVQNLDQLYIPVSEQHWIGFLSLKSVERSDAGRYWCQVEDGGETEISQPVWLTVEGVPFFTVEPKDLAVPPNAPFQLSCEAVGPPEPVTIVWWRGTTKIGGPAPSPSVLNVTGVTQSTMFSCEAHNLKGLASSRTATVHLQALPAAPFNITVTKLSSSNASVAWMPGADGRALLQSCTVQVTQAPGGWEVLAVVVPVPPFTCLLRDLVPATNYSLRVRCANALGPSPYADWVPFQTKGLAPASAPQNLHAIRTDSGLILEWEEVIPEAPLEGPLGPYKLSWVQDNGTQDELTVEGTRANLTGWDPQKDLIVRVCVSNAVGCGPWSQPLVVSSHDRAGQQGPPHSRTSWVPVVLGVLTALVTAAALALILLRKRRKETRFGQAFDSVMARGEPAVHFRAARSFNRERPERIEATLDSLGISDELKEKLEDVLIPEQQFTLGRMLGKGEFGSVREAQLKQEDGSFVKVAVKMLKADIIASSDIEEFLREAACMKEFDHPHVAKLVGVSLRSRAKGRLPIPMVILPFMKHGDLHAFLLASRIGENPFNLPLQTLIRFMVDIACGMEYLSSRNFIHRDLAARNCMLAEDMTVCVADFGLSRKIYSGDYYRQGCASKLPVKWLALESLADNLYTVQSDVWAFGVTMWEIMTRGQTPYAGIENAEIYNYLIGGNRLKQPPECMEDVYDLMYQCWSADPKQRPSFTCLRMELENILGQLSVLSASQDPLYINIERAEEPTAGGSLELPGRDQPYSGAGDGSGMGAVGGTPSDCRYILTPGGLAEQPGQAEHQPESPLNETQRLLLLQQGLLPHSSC
In short: as §1

[3] = target: LOK (Homo sapiens, UniProt O94804); settings: at 5 um
In short: as §1

[4] = target: RIPK2 (Homo sapiens, UniProt O43353)
In short: as §1

[5] = target: TIE2 (Homo sapiens, UniProt Q02763)
In short: as §1

LOK, sequence (O94804 whole entry, species assumed): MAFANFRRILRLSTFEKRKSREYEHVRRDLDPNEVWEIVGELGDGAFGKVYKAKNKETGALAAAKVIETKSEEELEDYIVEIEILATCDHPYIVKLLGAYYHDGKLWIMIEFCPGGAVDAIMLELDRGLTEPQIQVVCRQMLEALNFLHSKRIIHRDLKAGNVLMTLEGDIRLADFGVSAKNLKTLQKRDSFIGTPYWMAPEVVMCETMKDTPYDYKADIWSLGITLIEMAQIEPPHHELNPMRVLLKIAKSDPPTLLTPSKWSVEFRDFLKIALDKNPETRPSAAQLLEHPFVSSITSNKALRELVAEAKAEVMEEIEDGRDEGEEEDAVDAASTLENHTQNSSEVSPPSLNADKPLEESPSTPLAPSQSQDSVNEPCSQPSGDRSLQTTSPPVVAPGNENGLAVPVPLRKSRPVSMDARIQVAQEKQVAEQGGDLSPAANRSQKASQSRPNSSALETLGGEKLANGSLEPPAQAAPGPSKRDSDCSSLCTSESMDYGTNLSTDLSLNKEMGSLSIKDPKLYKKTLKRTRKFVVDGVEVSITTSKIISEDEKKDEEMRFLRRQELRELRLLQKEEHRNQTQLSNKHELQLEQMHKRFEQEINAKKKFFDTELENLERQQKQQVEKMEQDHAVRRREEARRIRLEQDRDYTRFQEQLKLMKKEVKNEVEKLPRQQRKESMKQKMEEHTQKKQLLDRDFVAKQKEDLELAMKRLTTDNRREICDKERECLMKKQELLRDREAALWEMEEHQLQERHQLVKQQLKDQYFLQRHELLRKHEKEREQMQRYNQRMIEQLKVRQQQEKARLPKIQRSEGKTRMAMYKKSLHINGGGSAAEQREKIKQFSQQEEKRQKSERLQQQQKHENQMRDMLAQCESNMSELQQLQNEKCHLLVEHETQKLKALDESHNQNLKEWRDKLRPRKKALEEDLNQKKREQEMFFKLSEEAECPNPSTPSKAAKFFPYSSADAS
TIE2, sequence (Q02763 23-1124, species assumed): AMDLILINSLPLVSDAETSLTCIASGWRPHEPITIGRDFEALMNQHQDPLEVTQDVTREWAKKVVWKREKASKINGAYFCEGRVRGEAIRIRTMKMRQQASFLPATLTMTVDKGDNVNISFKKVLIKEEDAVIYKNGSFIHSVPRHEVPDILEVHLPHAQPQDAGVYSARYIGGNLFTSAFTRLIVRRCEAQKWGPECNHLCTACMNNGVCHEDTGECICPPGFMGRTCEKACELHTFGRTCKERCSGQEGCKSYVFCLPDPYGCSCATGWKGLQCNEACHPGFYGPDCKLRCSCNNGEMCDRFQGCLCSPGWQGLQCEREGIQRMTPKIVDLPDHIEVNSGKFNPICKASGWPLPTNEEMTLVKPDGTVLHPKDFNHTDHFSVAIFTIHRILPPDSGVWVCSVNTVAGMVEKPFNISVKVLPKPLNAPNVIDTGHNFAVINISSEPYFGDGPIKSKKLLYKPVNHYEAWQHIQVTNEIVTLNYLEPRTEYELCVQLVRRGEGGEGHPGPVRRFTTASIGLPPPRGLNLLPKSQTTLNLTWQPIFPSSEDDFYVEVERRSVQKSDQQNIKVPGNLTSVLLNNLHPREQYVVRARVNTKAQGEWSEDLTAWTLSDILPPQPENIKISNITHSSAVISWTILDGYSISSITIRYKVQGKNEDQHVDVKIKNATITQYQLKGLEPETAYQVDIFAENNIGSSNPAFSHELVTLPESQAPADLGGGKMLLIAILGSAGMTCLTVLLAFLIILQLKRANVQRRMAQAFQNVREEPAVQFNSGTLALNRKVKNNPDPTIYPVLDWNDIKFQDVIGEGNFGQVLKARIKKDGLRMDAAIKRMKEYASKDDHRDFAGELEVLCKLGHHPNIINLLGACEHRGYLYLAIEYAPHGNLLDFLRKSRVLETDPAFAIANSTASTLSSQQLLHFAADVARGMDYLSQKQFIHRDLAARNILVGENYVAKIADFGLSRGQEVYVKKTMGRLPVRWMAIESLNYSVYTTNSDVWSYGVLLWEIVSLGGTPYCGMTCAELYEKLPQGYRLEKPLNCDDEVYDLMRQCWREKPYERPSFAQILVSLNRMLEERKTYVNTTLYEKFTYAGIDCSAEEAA
RIPK2, sequence (O43353 whole entry, species assumed): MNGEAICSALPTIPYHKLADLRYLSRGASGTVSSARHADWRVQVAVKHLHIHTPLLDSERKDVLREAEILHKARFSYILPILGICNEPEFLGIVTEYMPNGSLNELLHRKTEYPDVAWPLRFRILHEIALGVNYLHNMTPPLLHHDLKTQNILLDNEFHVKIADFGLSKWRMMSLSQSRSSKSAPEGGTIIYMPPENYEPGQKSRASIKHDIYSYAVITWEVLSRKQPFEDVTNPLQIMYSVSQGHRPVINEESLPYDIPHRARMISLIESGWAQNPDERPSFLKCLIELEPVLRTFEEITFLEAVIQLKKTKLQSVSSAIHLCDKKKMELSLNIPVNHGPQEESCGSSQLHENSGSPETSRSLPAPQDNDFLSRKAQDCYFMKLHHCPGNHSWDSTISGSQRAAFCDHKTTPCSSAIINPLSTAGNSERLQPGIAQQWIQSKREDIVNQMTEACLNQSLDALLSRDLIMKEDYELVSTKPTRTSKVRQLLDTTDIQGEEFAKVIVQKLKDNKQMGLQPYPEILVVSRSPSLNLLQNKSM

| Structure (SMILES) | inhibition at 5 µM [1] [%] | inhibition at 5 µM [2] [%] | inhibition of kinase activity, LOK [3] | inhibition at 5 µM [4] [%] | inhibition at 5 µM [5] [%] |
| --- | --- | --- | --- | --- | --- |
| CSc1nc(C(=O)Nc2ccc(Oc3ccnc(N)c3Cl)c(F)c2)c(-c2ccc(F)cc2)o1 [Compound 1] | 90 to 94 | 50 to 79 | E (category E is less than 50%) | < 50 | < 50 |
| CSc1nc(C(=O)Nc2ccc(Oc3cc4cnn(C)c4cc3Br)c(F)c2)c(-c2ccc(F)cc2)o1 [Compound 2] | ≥ 95 | < 50 | D (category D for 50-79) | < 50 | 50 to 79 |
| CNC(=O)c1cc(Oc2ccc(NC(=O)c3nc(SC)oc3-c3ccc(F)cc3Cl)cc2)ccn1 [Compound 3] | ≥ 95 | 90 to 94 | E (category E is less than 50%) | 90 to 94 | 50 to 79 |
| CNC(=O)c1cc(Oc2ccc(NC(=O)c3nc(SC)oc3-c3ccc(F)c(F)c3)cc2)ccn1 [Compound 4] | ≥ 95 | 50 to 79 | D (category D for 50-79) | 80 to 89 | < 50 |
| CNC(=O)c1cc(Oc2ccc(NC(=O)c3nc(SC)oc3-c3ccc(Cl)s3)cc2)ccn1 [Compound 5] | 90 to 94 | 80 to 89 | E (category E is less than 50%) | 50 to 79 | < 50 |
| CNC(=O)c1cc(Oc2ccc(NC(=O)c3nc(SC)oc3-c3ccc(F)cc3F)cc2)ccn1 [Compound 6] | 90 to 94 | ≥ 95 | E (category E is less than 50%) | ≥ 95 | 80 to 89 |
| CNC(=O)c1cc(Oc2ccc(NC(=O)c3nc(SC)oc3-c3ccc(OC)cc3)cc2)ccn1 [Compound 7] | 90 to 94 | < 50 | C (C=80%-89% at 5 um) | < 50 | < 50 |
| CSc1nc(C(=O)Nc2ccc(Oc3ccnc(-c4cnn(C)c4)c3)c(F)c2)c(-c2ccc(F)cc2)o1 [Compound 11] | ≥ 95 | ≥ 95 | B (B=90%-94% at 5 um) | 50 to 79 | 80 to 89 |
| CNC(=O)c1cc(Oc2ccc(NC(=O)c3nc(SC)oc3-c3ccc(F)cc3F)cc2F)ccn1 [Compound 12] | 90 to 94 | 90 to 94 | D (category D for 50-79) | 90 to 94 | 50 to 79 |
| CNC(=O)c1cc(Oc2ccc(NC(=O)c3nc(S(C)(=O)=O)sc3-c3ccc(F)cc3)cc2F)ccn1 [Compound 13] | ≥ 95 | 80 to 89 | E (category E is less than 50%) | 80 to 89 | 50 to 79 |
| CNC(=O)c1cc(Oc2ccc(NC(=O)c3nc(NC)oc3-c3ccc(F)cc3)cc2F)ccn1 [Compound 14] | ≥ 95 | 80 to 89 | C (C=80%-89% at 5 um) | 90 to 94 | 50 to 79 |
| CNC(=O)c1cc(Oc2ccc(NC(=O)c3nc(OC)oc3-c3ccc(F)cc3)cc2F)ccn1 [Compound 15] | ≥ 95 | 90 to 94 | C (C=80%-89% at 5 um) | 80 to 89 | < 50 |
| CNC(=O)c1cc(Oc2ccc(NC(=O)c3nc(SC)oc3-c3ccc(F)s3)cc2F)ccn1 [Compound 16] | ≥ 95 | < 50 | D (category D for 50-79) | < 50 | < 50 |
| CNC(=O)c1cc(Oc2ccc(NC(=O)c3nc(NC)oc3-c3ccc(F)s3)cc2F)ccn1 [Compound 17] | ≥ 95 | < 50 | D (category D for 50-79) | < 50 | < 50 |
| CNC(=O)c1cc(Oc2c(F)cc(NC(=O)c3nc(NC)sc3-c3ccc(F)cc3)cc2F)ccn1 [Compound 19] | ≥ 95 | 50 to 79 | D (category D for 50-79) | 50 to 79 | 50 to 79 |
| CNC(=O)c1cc(Oc2ccc(NC(=O)c3nc(NC)sc3-c3ccc(F)cc3F)cc2F)ccn1 [Compound 21] | ≥ 95 | < 50 | E (category E is less than 50%) | 50 to 79 | 50 to 79 |
| CNC(=O)c1cc(Oc2ccc(NC(=O)c3nc(NC)sc3-c3ccc(F)cc3C)cc2F)ccn1 [Compound 23] | 90 to 94 | 80 to 89 | D (category D for 50-79) | 80 to 89 | 50 to 79 |
| CNC(=O)c1cc(Oc2ccc(NC(=O)c3nc(OC)oc3-c3ccc(F)c(F)c3)cc2F)ccn1 [Compound 24] | ≥ 95 | 50 to 79 | C (C=80%-89% at 5 um) | 50 to 79 | < 50 |
| CNC(=O)c1cc(Oc2ccc(NC(=O)c3nc(OC)oc3-c3ccc(F)s3)cc2F)ccn1 [Compound 25] | ≥ 95 | 50 to 79 | D (category D for 50-79) | < 50 | < 50 |
| CNC(=O)c1cc(Oc2ccc(NC(=O)c3nc(C4CC4)oc3-c3ccc(F)cc3)cc2F)ccn1 [Compound 26] | ≥ 95 | 90 to 94 | C (C=80%-89% at 5 um) | 80 to 89 | 80 to 89 |
| CSc1nc(C(=O)Nc2ccc(Oc3ccnc(C(=O)NC4CNC4)c3)c(F)c2)c(-c2ccc(F)s2)o1 [Compound 27] | ≥ 95 | < 50 | E (category E is less than 50%) | < 50 | < 50 |
| CSc1nc(C(=O)Nc2ccc(Oc3ccnc(C(=O)NC4COC4)c3)c(F)c2)c(-c2ccc(F)s2)o1 [Compound 28] | ≥ 95 | < 50 | E (category E is less than 50%) | < 50 | < 50 |
| CSc1nc(C(=O)Nc2ccc(Oc3ccnc(C(=O)NC4CNC4)c3)c(F)c2)c(-c2ccc(F)cc2)o1 [Compound 29] | ≥ 95 | 50 to 79 | D (category D for 50-79) | 80 to 89 | < 50 |
| CNC(=O)c1cc(Oc2ccc(NC(=O)c3nc(COC)oc3-c3ccc(F)cc3)cc2F)ccn1 [Compound 30] | ≥ 95 | ≥ 95 | A (A=95% or greater at 5 um) | 80 to 89 | 80 to 89 |
| CSc1nc(C(=O)Nc2ccc(Oc3ccnc(C(=O)NC4COC4)c3)c(F)c2)c(-c2ccc(F)cc2)o1 [Compound 31] | ≥ 95 | 50 to 79 | D (category D for 50-79) | 50 to 79 | < 50 |
